# Data from patent publication US20170152490A9, “USE OF ACTIVIN RECEPTOR-LIKE KINASE 1 (ALK-1) ANTAGONISTS IN THE TREATMENT OF CANCER” (Acceleron Pharma, Inc., priority 2014, published 2017).
# Entries after “also recorded” stand apart in the source; their conditions may differ.
# Legend:
# [1] = cited from earlier work; for typical maximum tolerated dose: body surface
# [2] = system: RPMI2650 xenograft (Nasal Septum Carcinoma cells, ATCC# CCL-30); experiment: RPMI2650 head and neck carcinoma xenograft, tumor growth; assay type: in vivo, Mus musculus (Hsd: Athymic Nude-Foxn1nu); conditions: for TGI (tumor growth inhibition): day 30, after 3 weeks of dosing; for TGI (tumor growth inhibition) / GMDV (geo mean of final tumor volume/geo mean of initial tumor volume): ACE-041 10 mg/kg i.p. tiw, cisplatin 5 mg/kg i.v. qw; for GMDV (geo mean of final tumor volume/geo mean of initial tumor volume): day 30
# Description: Tumor implantation. RPMI2650 (ATCC #CCL-30) were grown in Eagle's Minimum Essential Medium (ATCC Cat. No 30-2003), supplemented with fetal bovine serum (Gibco, Cat. No 26140) to a final concentration of 10%. Cell were harvested by mild trypsin digestion, washed in SFM and resuspended at a concentration of 50×10E6/ml in SFM. 0.1 ml (5×10E6 cells) of the cell suspension was injected subcutaneously in the right flank of a nude mouse.
# Tumor measurement. Tumor size was measured manually using digital calipers. Tumor volume was calculated using the formula for a modified ellipse ((Length*Width2)/2).
# Data Analysis. […] TGI was calculated according to the formula:
# TGI=(GMDV(C)−GMDV(T))*100/(GMDV(C)−1), where GMDV=Geomean(final volumes)/Geomean(intitial volumes)
# [3] = Animal body weight / tolerability in the RPMI2650 xenograft study; conditions: for Average changes in body weight: ACE-041 10 mg/kg i.p. tiw
# Description: Nasal Septum Carcinoma cells (RPMI2650, ATCC# CCL-30) were injected subcutaneously in the right flank (5×10E6 in 0.1 ml of SFM) of 8-week old female mice. Nine days following implantation animals were randomized into 4 groups based on tumor volume. Animal dosing and tumor measurement was done three times a week.
# Data Analysis. Graphing and statistical analysis of the tumor volume and body weight data was done using GraphPad Prism 5 software (GraphPad Software Inc., La Jolla, Calif.). Unpaired two-tailed t-test (with or w/o Welch correction) was used to determine statistical significance.
# [4] = system: recurrent or metastatic squamous cell carcinoma of the head and neck (SCCHN); experiment: Phase 2 study of Dalantercept in recurrent or metastatic SCCHN; assay type: in vivo, human
# Description: Methods: 46 patients were enrolled and received Dalantercept SC Q3W at 80 mg (n=2), 0.6 mg/kg (n=13), and 1.2 mg/kg (n=31) until disease progression or unacceptable toxicity. Archived and optional biopsies and serum were collected for PD (pharmacodynamic) studies . The primary endpoint was response rate (RR) per RECIST 1.1 and secondary endpoints included progression free survival and overall survival. Key eligibility: recurrent or metastatic SCCHN of mucosal origin, >1 one prior platinum regimen, ECOG performance status ≦1, and no prior anti-angiogenic therapy.
# [5] = system: advanced, refractory solid tumors including SCCHN; experiment: Phase 1 study of dalantercept in patients with advanced, refractory solid tumors; assay type: in vivo, human; conditions: patients incl. SCCHN
# [6] = Day 9 (randomization, start of dosing), s.c. RPMI2650 xenograft, nude mice
# [7] = Day 30, ACE-041 10 mg/kg i.p. tiw x3, cisplatin 5 mg/kg i.v. qw x3
# [8] = day 30, cisplatin 5 mg/kg i.v. qw
Molecule,typical maximum tolerated dose [1],"Tumor volume (geo mean) [2, 6] [mm3]","Tumor volume (geo mean) [2, 7] [mm3]",TGI (tumor growth inhibition) [2] [%],GMDV (geo mean of final tumor volume/geo mean of initial tumor volume) [2],"maximum tolerated dose ([1]; typical, most patients)","Average changes in body weight [3, 8] [%]","cumulative body weight loss on average [3, 8] [%]","body weight loss of some animals (as much as) ([3]; individual animals, triggered termination of the study) [%]",proportion of patients with stable disease (SD) >3 cycles ([4]; 0.6 mg/kg SC Q3W (n=3)) [%],proportion of patients with stable disease (SD) >3 cycles ([4]; 1.2 mg/kg SC Q3W (n=10)) [%],"patients achieving a partial response (PR), RECIST 1.1 ([4]; 1 patient at 1.2 mg/kg SC Q3W, 41 evaluable patients) [%]","frequency of grade >3 related AEs ([4]; 46 patients enrolled, SC Q3W) [%]",most common drug-related adverse events (in words) ([4]; grade 1-2),clinical activity (in words) ([5]; listed as Dalantercept),clinical activity (in words) ([5]; listed as dalantercept),toxicity as monitored by changes in animal body weight (in words) ([3]; dosing period to day 30)
N.N.O=C([O-])C1(C(=O)[O-])CCC1.[Pt+2] [Carboplatin],600-800 mg/m^2,–,–,–,–,–,–,–,–,–,–,–,–,–,–,–,–
"N.N.[Cl][Pt][Cl] [Cisplatin, cisplatin]",60-100 mg/m^2,185.8,1001,35,5.4,about 5 mg/kg/day,−12.9,~13,≤ 20,–,–,–,–,–,–,–,–
N.N.N.N.N.N.NCCCCCCN.NCCCCCCN.[Cl-].[Cl-].[Pt+2].[Pt+2].[Pt+2] [Triplatin],0.9-1.1 mg/m^2,–,–,–,–,–,–,–,–,–,–,–,–,–,–,–,–
"ACE-041: Soluble ALK1-IgG1 fusion protein (ALK1 extracellular domain-Fc), see SEQ ID NO: 3; ligand trap to BMP 9 and 10",–,181.4,1024,32,5.6,–,9.1,–,–,23,37,2.4,13,"anemia, fatigue, peripheral edema, headache, hyponatremia, and pleural effusion",demonstrated activity in a subset of patients with SCCHN,signs of clinical activity; also recorded: stable disease,did not show any sign of acute toxicity
